Source: ChEMBL document CHEMBL3045390, “Synthesis of 3-(5-bromo-2,3-dimethoxy-phenyl)-[1, 2, 4] oxadiazole analogues and their evaluation as anti-Parkinsons agents” (Med Chem Res, 2008)
Activity calls are given as the source filed them. No cut-off for these calls is given here.

Key:
[1] = test system: Rattus norvegicus; assay: Antiparkinson's activity in Rattus norvegicus albino (rat) assessed as reduction of chlorpromazine-induced catatonia at 100 mg/kg, ip administered 30 min before chlorpromazine challenge measured up to 180 min; format: functional, organism-based; design: dose 100 mg/kg
[2] = Lipophilicity, log P of the compound; format: physicochemical; conditions: octanol/water
[3] = test system: Rattus norvegicus; assay: Neurotoxicity inRattus norvegicus albino (rat) assessed as motor coordination at 200 mg/kg, ip after 30 min by […]; format: toxicity, organism-based; design: dose 200 mg/kg, route intraperitoneal; conditions: in vivo, 0.5 h
[4] = test system: Rattus norvegicus; assay: Antiparkinson's activity in Rattus norvegicus albino (rat) assessed as reduction of chlorpromazine-induced catatonia at 10 mg/kg, ip administered 30 min before chlorpromazine challenge measured up to 180 min; format: functional, organism-based; design: dose 10 mg/kg
[5] = test system: Rattus norvegicus; assay: Neurotoxicity inRattus norvegicus albino (rat) assessed as motor coordination at 10 mg/kg, ip after 30 min by […]; format: toxicity, organism-based; design: dose 10 mg/kg, route intraperitoneal; conditions: in vivo, 0.5 h

Row | SMILES | Activity [1] | logP [2] | Activity [3] | Activity [4] | Activity [5]
1 | COc1cc(Br)cc(-c2noc(C3CCCN(Cc4ccccc4)C3)n2)c1OC (stereo not drawn) | Active | 5.81 | Toxic | – | –
2 | NCCc1ccc(O)c(O)c1 [DOPAMINE] | – | – | – | inactive | Non-toxic
3 | N[C@@H](Cc1ccc(O)c(O)c1)C(=O)O [LEVODOPA] | – | – | – | inactive | Non-toxic
4 | COc1cc(Br)cc(-c2noc(C3CCCN(C)C3)n2)c1OC (stereo not drawn) | Active | 4.08 | Non-toxic | – | –
5 | COc1cc(Br)cc(-c2noc(C3CCCCN3Cc3ccccc3)n2)c1OC (stereo not drawn) | Active | 5.81 | Toxic | – | –
6 | COc1cc(Br)cc(-c2noc(C3CCCCN3C)n2)c1OC (stereo not drawn) | Active | 4.21 | Non-toxic | – | –
7 | COc1cc(Br)cc(-c2noc(C3CCCN3C)n2)c1OC (stereo not drawn) | Active | 3.79 | Non-toxic | – | –
8 | COc1cc(Br)cc(-c2noc(C3CCN(Cc4ccccc4)CC3)n2)c1OC | Active | 5.59 | Toxic | – | –
9 | COc1cc(Br)cc(-c2noc(C3CCCN3Cc3ccccc3)n2)c1OC (stereo not drawn) | Active | 5.52 | Toxic | – | –
10 | COc1cc(Br)cc(-c2noc(C3CCN(C)CC3)n2)c1OC | Active | 3.86 | Non-toxic | – | –
